Results from the supplement of paper PMC10307832.

Key:
Assay in all cases: relative viability (nuclei count vs DMSO), 5 days (fraction); higher = more cells survive
NCI-H838 = system: NCI-H838
Summary of the method: (§1)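 Relative viability equals treated-well nuclei counts divided by vehicle-well nuclei counts. Counts came from 4× images of lung cancer cell lines grown in 1536-well plates for 5 days after pin-tool dosing on the day after seeding. Dosing used one drug alone or a fixed anchor-drug dose plus five library-drug doses (not always all listed) in √10 steps, and values are medians of duplicate plates.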

NCI-H2126 = system: NCI-H2126
Summary of the method: as §1

LU99A = system: LU99A
Summary of the method: as §1

NCI-H1993 = system: NCI-H1993
Summary of the method: as §1

NCI-H1355 = system: NCI-H1355
Summary of the method: as §1

ABC-1 = system: ABC-1
Summary of the method: as §1

LC-2-ad = system: LC-2-ad
Summary of the method: as §1

NCI-H1915 = system: NCI-H1915
Summary of the method: as §1

NCI-H2347 = system: NCI-H2347
Summary of the method: as §1

HCC-44 = system: HCC-44
Summary of the method: as §1

NCI-H358 = system: NCI-H358
Summary of the method: as §1

HCC-15 = system: HCC-15
Summary of the method: as §1

O=c1cc(-c2cccc3c2Sc2ccccc2S3)oc(N2CCOCC2)c1 + Cc1nc(NC(=O)N2CCC[C@H]2C(N)=O)sc1-c1ccnc(C(C)(C)C(F)(F)F)c1 [Alpelisib] (partner 2 µM)
relative viability (NCI-H838; first compound 0.8 µM): 0.951
relative viability (NCI-H838; first compound 2.53 µM): 0.903
relative viability (NCI-H838; first compound 8 µM): 1.06
relative viability (NCI-H2126; first compound 0.08 µM): 0.827
relative viability (NCI-H2126; first compound 0.253 µM): 0.822
relative viability (NCI-H2126; first compound 0.8 µM): 0.734
relative viability (NCI-H2126; first compound 2.53 µM): 0.739
relative viability (NCI-H2126; first compound 8 µM): 0.735
relative viability (LU99A; first compound 0.08 µM): 0.507
relative viability (LU99A; first compound 0.253 µM): 0.567
relative viability (LU99A; first compound 0.8 µM): 0.747
relative viability (LU99A; first compound 2.53 µM): 0.504
relative viability (LU99A; first compound 8 µM): 0.575
relative viability (NCI-H1993; first compound 0.08 µM): 0.735
relative viability (NCI-H1993; first compound 0.253 µM): 0.687
relative viability (NCI-H1993; first compound 0.8 µM): 0.69
relative viability (NCI-H1993; first compound 2.53 µM): 0.68
relative viability (NCI-H1993; first compound 8 µM): 0.718
relative viability (NCI-H1355; first compound 0.08 µM): 0.726
relative viability (NCI-H1355; first compound 0.253 µM): 0.949
relative viability (NCI-H1355; first compound 0.8 µM): 0.601
relative viability (NCI-H1355; first compound 2.53 µM): 0.748
relative viability (NCI-H1355; first compound 8 µM): 0.704
relative viability (ABC-1; first compound 0.08 µM): 1.17
relative viability (ABC-1; first compound 0.253 µM): 1.14
relative viability (ABC-1; first compound 0.8 µM): 1.16
relative viability (ABC-1; first compound 2.53 µM): 0.901
relative viability (ABC-1; first compound 8 µM): 0.953
relative viability (LC-2-ad; first compound 0.08 µM): 0.884
relative viability (LC-2-ad; first compound 0.253 µM): 0.908
relative viability (LC-2-ad; first compound 0.8 µM): 0.844
relative viability (LC-2-ad; first compound 2.53 µM): 0.806
relative viability (LC-2-ad; first compound 8 µM): 0.75
relative viability (NCI-H1915; first compound 0.08 µM): 1.15
relative viability (NCI-H1915; first compound 0.253 µM): 1.12
relative viability (NCI-H1915; first compound 0.8 µM): 1.07
relative viability (NCI-H1915; first compound 2.53 µM): 0.994
relative viability (NCI-H1915; first compound 8 µM): 1.11
relative viability (NCI-H2347; first compound 0.08 µM): 1.03
relative viability (NCI-H2347; first compound 0.253 µM): 1.14
relative viability (NCI-H2347; first compound 0.8 µM): 1.1
relative viability (NCI-H2347; first compound 2.53 µM): 1.11
relative viability (NCI-H2347; first compound 8 µM): 1.16
relative viability (HCC-44; first compound 0.08 µM): 0.811
relative viability (HCC-44; first compound 0.253 µM): 0.904
relative viability (HCC-44; first compound 0.8 µM): 0.689
relative viability (HCC-44; first compound 2.53 µM): 0.685
relative viability (HCC-44; first compound 8 µM): 0.753
relative viability (NCI-H358; first compound 0.08 µM): 0.776
relative viability (NCI-H358; first compound 0.253 µM): 0.824
relative viability (NCI-H358; first compound 0.8 µM): 0.816
relative viability (NCI-H358; first compound 2.53 µM): 0.786
relative viability (NCI-H358; first compound 8 µM): 0.795
relative viability (HCC-15; first compound 0.08 µM): 0.896
relative viability (HCC-15; first compound 0.253 µM): 1.05
relative viability (HCC-15; first compound 0.8 µM): 0.89
relative viability (HCC-15; first compound 2.53 µM): 0.797
relative viability (HCC-15; first compound 8 µM): 0.922
